Key:
[1] = system: bone marrow samples of multiple myeloma (MM) patients; assay: Ex vivo test of single drugs, EC50 compared with population distribution, multiple myeloma samples; type: cell-based, human
Experimental: (§1) Bone marrow samples were obtained from three adult patients diagnosed with MM (VIVIA-PMMM010431, VIVIA-PMMM060111 and VIVIA-PMMM130061) and three adult patients diagnosed with ALL (VIVIA-PMALL07002, VIVIA-PMALL04001 and VIVIA-PMALL09001). Following the same experimental design as described for examples 1 and 3, said bone marrow samples were incubated for 48 h in well plates containing the single drugs shown in FIGS. 21 to 26. After the measurement of pathological populations by flow cytometry, pharmacological response parameters were estimated using population pharmacodynamic models. The most representative parameter of drug potency, the EC50, was used for a comparative analysis of the results provided by said bone marrow samples with respect to the statistical distribution of the same parameter observed in a population of samples and stored in the database. Such populations varied in size depending on the drug, being always over one hundred individuals in the case of MM and between 15 and 21 individuals in the case of ALL.

[2] = system: bone marrow samples of acute lymphoid leukemia (ALL) patients; assay: Ex vivo test of single drugs, EC50 compared with population distribution, acute lymphoid leukemia samples; type: cell-based, human
Experimental: as §1

[3] = MM patient VIVIA-PMMM010431, 48 h
[4] = MM patient VIVIA-PMMM060111, 48 h
[5] = MM patient VIVIA-PMMM130061, 48 h
[6] = ALL patient VIVIA-PMALL07002, 48 h
[7] = ALL patient VIVIA-PMALL09001, 48 h
[8] = ALL second line patient VIVIA-PMALL04001, 48 h

EC50 relative to population distribution [1, 3] | Molecule | ex vivo activity [1, 3] | ex vivo activity [1, 5] | ex vivo activity [2, 6] | ex vivo activity [2, 7] | ex vivo activity [2, 8] | also measured
below the first quartile | CC(C)C[C@H](NC(=O)[C@H](Cc1ccccc1)NC(=O)c1cnccn1)B(O)O [bortezomib] | potent activity | very weak activity | – | – | – | ex vivo activity [1, 4]: intermediate activity
– | CC[C@]1(O)C[C@H]2CN(CCc3c([nH]c4ccccc34)[C@@](C(=O)OC)(c3cc4c(cc3OC)N(C=O)[C@H]3[C@@](O)(C(=O)OC)[C@H](OC(C)=O)[C@]5(CC)C=CCN6CC[C@]43[C@@H]65)C2)C1 [vincristine] | – | – | intermediate or high activity | high activity | low activity or resistance | –
– | O=C1c2c(O)ccc(O)c2C(=O)c2c(NCCNCCO)ccc(NCCNCCO)c21 [mitoxantrone] | – | – | – | – | low activity or resistance | –
– | O=P1(N(CCCl)CCCl)NCCCO1 (stereo not shown) [cyclophosphamide] | – | – | intermediate or high activity | – | – | –
below the 10th percentile | C[C@]12C=CC(=O)C=C1CC[C@@H]1[C@@H]2[C@@H](O)C[C@@]2(C)[C@H]1CC[C@]2(O)C(=O)CO [prednisolone] | potent activity | – | intermediate or high activity | high activity | – | –
– | L-asparaginase | – | – | intermediate or high activity | – | – | –
– | O=C1CCC(N2C(=O)c3ccccc3C2=O)C(=O)N1 (stereo not shown) [thalidomide] | – | very weak activity | – | – | – | –
– | C[C@@H]1C[C@H]2[C@@H]3CCC4=CC(=O)C=C[C@]4(C)[C@@]3(F)[C@@H](O)C[C@]2(C)[C@@]1(O)C(=O)CO [dexamethasone] | – | – | – | – | – | ex vivo activity [1, 4]: no activity
– | COc1cccc2c1C(=O)c1c(O)c3c(c(O)c1C2=O)C[C@@](O)(C(C)=O)C[C@@H]3O[C@H]1C[C@H](N)[C@H](O)[C@H](C)O1 [daunorubicin] | – | – | intermediate or high activity | high activity | low activity or resistance | –

Molecule | EC50 relative to population distribution [1, 3] | ex vivo activity [1, 3] | ex vivo activity [1, 5] | ex vivo activity [2, 6] | ex vivo activity [2, 7] | ex vivo activity [2, 8] | also measured
Cn1c(CCCC(=O)O)nc2cc(N(CCCl)CCCl)ccc21 [bendamustine] | below the 10th percentile | potent activity | very weak activity | – | – | – | –

Source: patent publication US20210358575A1, “A METHOD FOR DETERMINING THE EFFICACY OF TREATMENT WITH A COMBINATION OF DRUGS IN A SUBJECT DIAGNOSED WITH A DISEASE AND A METHOD FOR CLASSIFYING THE UTILITY OF DRUG COMBINATIONS IN TREATMENT OF SAID SUBJECT” (priority 2018, published 2021)
